Data reported in BindingDB's records for doi:10.7270/Q2959G44 (Burnham Center For Chemical Genomics, 2012).

Target: Dual specificity protein phosphatase 3 (Homo sapiens, UniProt P51452)
Assay: VHR phosphatase inhibition, dose response, selectivity assay for STEP inhibitor project, biochemical (AID 602374)

Chain of Dual specificity protein phosphatase 3 (P51452 whole entry): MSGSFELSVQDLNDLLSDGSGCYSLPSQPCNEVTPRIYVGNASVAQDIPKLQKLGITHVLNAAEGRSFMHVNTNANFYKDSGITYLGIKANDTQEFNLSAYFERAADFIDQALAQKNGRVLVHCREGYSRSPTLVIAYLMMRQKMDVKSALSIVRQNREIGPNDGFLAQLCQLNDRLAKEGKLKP

Row | IC50 [µM] | Compound
1 | 1.23 | S=C1N=C2C(=C3SCCS3)CCCC2C(c2ccccc2)N1 (stereo not given) [MLS000516376]
2 | 1.27 | CSc1ccc(CN=Nc2ccc(S(=O)(=O)Nc3ccccc3C(=O)O)cc2[N+](=O)[O-])cc1 [MLS002245633]
3 | 3.13 | O=C(N/N=C/C1C=CC=CC1=O)c1cccc([N+](=O)[O-])c1 (stereo not given) [MLS002667988]
4 | 0.833 | COc1ccc(OC)c(-n2c(O)c3o[nH]c(-c4ccccc4Cl)c-3c2=O)c1 [SMR000046218]

More lines, now with the values behind:

Row | Compound | IC50 [µM]
5 | S=C1N=C(C23CC4CC(CC(C4)C2)C3)CC(c2ccc3c(c2)OCO3)N1 (stereo not given) | 3.52
6 | CCOc1cc(CN=Nc2nc(O)c(CC(=O)O)s2)ccc1OCc1ccc(Cl)cc1Cl [2-[2-[(N''E)-N''-[4-(2,4-dichlorobenzyl)oxy-3-ethoxy-benzylidene]hydrazino]-4-keto-2-thiazolin-5-yl]acetic acid] | 2.42
7 | C=c1c(O)c(O)c(=C2C(=O)C(=O)C(C)C(=O)C2=O)c(O)c1O (stereo not given) [(3E)-5-hydroxy-6-methyl-3-(2,3,5-trihydroxy-4-methyl-6-oxo-1-cyclohexa-2,4-dienylidene)cyclohex-5-ene-1,2,4-trione] | 1.27
8 | O=C1C(=O)N(CCCO)C(c2ccc(Br)cc2)C1C(=O)c1ccc(Br)cc1 (stereo not given) [(4E)-5-(4-bromophenyl)-4-[(4-bromophenyl)-oxidanyl-methylidene]-1-(3-oxidanylpropyl)pyrrolidine-2,3-dione] | 73.4
9 | CCN(CC)P(=O)(NC(=O)C(Cl)(Cl)Cl)N(CC)CC [MLS000564159] | 3.25
10 | COc1ccc(CN=Nc2nc(O)c(CC(=O)O)s2)cc1OCc1ccc(Cl)cc1Cl [[2-({3-[(2,4-dichlorobenzyl)oxy]-4-methoxybenzylidene}hydrazono)-4-oxo-1,3-thiazolidin-5-yl]acetic acid] | 4.79
